Source: ChEMBL document CHEMBL3792342, “Synthesis and biological evaluation of 2-arylimino-3-pyridin-thiazolineone derivatives as antibacterial agents” (Bioorg Med Chem Lett, 2016)
In brackets after ≈: the same amount, converted by molar mass.

Assays:
[1] = system: Staphylococcus epidermidis; test: Antibacterial activity against Staphylococcus epidermidis ATCC 35984 by broth micro-dilution method; assay type: functional; settings: RP62A
[2] = Cytotoxicity against African green monkey Vero cells; assay type: cell-based; settings: chlorocebus sabaeus
[3] = system: Staphylococcus aureus; test: Antibacterial activity against methicillin-resistant Staphylococcus aureus 8282 by broth micro-dilution method; assay type: functional
[4] = Hemolytic activity in human erythrocytes at 200 uM; assay type: ADME, cell-based; settings: erythrocyte
[5] = system: Staphylococcus epidermidis; test: Bactericidal activity against Staphylococcus epidermidis ATCC 35984; assay type: functional; settings: RP62A
[6] = system: Escherichia coli; test: Antibacterial activity against Escherichia coli ATCC 25922 by broth micro-dilution method; assay type: functional

In the case of `O=C(O)c1cccc(-c2ccc(/C=C3\S/C(=N\c4ccc(Cl)cc4)N(c4ccccn4)C3=O)o2)c1`, the MIC [1] is reported as 6.25 µM (≈ 3.14 µg/mL), the CC50 [2] is reported as over 200 µM and the MIC [3] is reported as 6.25 µM (≈ 3.14 µg/mL). The Activity [4] was “Non-toxic”, the MBC [5] was 50 µM (≈ 25.1 µg/mL) and the MIC [6] was over 200 µM.

Work on `O=C(O)c1cccc(-c2ccc(/C=C3\S/C(=N\c4ccccc4)N(c4ccc(F)cc4)C3=O)o2)c1` yielded an MIC [1] of 25 µM (≈ 12.1 µg/mL), a CC50 [2] of over 200 µM and an MIC [3] of 25 µM (≈ 12.1 µg/mL). The Activity [4] was “Non-toxic”, the MBC [5] was 50 µM (≈ 24.2 µg/mL) and the MIC [6] was over 200 µM.

Compound `O=C(O)c1cccc(-c2ccc(/C=C3\S/C(=N\c4ccccc4)N(c4ccc(Cl)cc4)C3=O)s2)c1` has an MIC [1] of 1.56 µM (≈ 0.807 µg/mL), a CC50 [2] of over 200 µM and an MIC [3] of 3.13 µM (≈ 1.62 µg/mL). For the same compound, the Activity [4] was “Non-toxic”, the MBC [5] was 25 µM (≈ 12.9 µg/mL) and the MIC [6] was over 200 µM.

`O=C(O)c1cccc(-c2ccc(/C=C3\S/C(=N\c4ccc(Cl)cc4)N(c4ccccc4)C3=O)o2)c1` showed an MIC [1] of 6.25 µM (≈ 3.13 µg/mL), a CC50 [2] of over 200 µM and an MIC [3] of 6.25 µM (≈ 3.13 µg/mL). For the same compound, the Activity [4] was “Non-toxic”, the MBC [5] was 100 µM (≈ 50.1 µg/mL) and the MIC [6] was over 200 µM.

With `O=C(O)c1cccc(-c2ccc(/C=C3\S/C(=N\c4ccccc4)N(c4ncccc4F)C3=O)o2)c1` the MIC [1] was 12.5 µM (≈ 6.07 µg/mL), the CC50 [2] was over 200 µM and the MIC [3] was 12.5 µM (≈ 6.07 µg/mL). For the same compound, the Activity [4] was “Non-toxic”, the MBC [5] was over 200 µM and the MIC [6] was over 200 µM.

In the case of `O=C(O)c1cccc(-c2ccc(/C=C3\S/C(=N\c4ccc(F)cc4)N(c4ccc(F)cc4)C3=O)s2)c1`, the MIC [1] is reported as 6.25 µM (≈ 3.24 µg/mL), the CC50 [2] is reported as over 200 µM and the MIC [3] is reported as 6.25 µM (≈ 3.24 µg/mL). For the same compound, the Activity [4] was “Non-toxic”, the MBC [5] was 100 µM (≈ 51.9 µg/mL) and the MIC [6] was over 200 µM.

In the case of `O=C(O)c1cccc(-c2ccc(/C=C3\S/C(=N\c4ccc(F)cc4)N(c4ccc(F)cc4)C3=O)o2)c1`, the MIC [1] is reported as 100 µM (≈ 50.2 µg/mL), the CC50 [2] is reported as over 200 µM and the MIC [3] is reported as 100 µM (≈ 50.2 µg/mL). The Activity [4] was “Non-toxic”, the MBC [5] was over 200 µM and the MIC [6] was over 200 µM.

For `O=C(O)c1cccc(-c2ccc(/C=C3\S/C(=N\c4ccccc4)N(c4cccc(F)n4)C3=O)o2)c1`, the MIC [1] was 6.25 µM (≈ 3.03 µg/mL), the CC50 [2] was over 200 µM and the MIC [3] was 6.25 µM (≈ 3.03 µg/mL). For the same compound, the Activity [4] was “Non-toxic”, the MBC [5] was 100 µM (≈ 48.5 µg/mL) and the MIC [6] was over 200 µM.

`O=C(O)c1cccc(-c2ccc(/C=C3\S/C(=N\c4ccccc4)N(c4cccnc4[N+](=O)[O-])C3=O)s2)c1` showed an MIC [1] of 1.56 µM (≈ 0.825 µg/mL), a CC50 [2] of over 200 µM and an MIC [3] of 3.13 µM (≈ 1.65 µg/mL). For the same compound, the Activity [4] was “Non-toxic”, the MBC [5] was 12.6 µM (≈ 6.66 µg/mL) and the MIC [6] was over 200 µM.

With `Cc1ncccc1N1C(=O)/C(=C/c2ccc(-c3cccc(C(=O)O)c3)s2)S/C1=N\c1ccccc1` the MIC [1] was 12.5 µM (≈ 6.22 µg/mL), the CC50 [2] was over 200 µM and the MIC [3] was 12.5 µM (≈ 6.22 µg/mL). The Activity [4] was “Non-toxic”, the MBC [5] was 100 µM (≈ 49.8 µg/mL) and the MIC [6] was over 200 µM.

`O=C(O)c1cccc(-c2ccc(/C=C3\S/C(=N\c4ccc(Cl)cc4)N(c4ccc(Cl)cc4)C3=O)s2)c1` showed an MIC [1] of 12.5 µM (≈ 6.89 µg/mL), a CC50 [2] of over 200 µM and an MIC [3] of 25 µM (≈ 13.8 µg/mL). For the same compound, the Activity [4] was “Non-toxic”, the MBC [5] was over 200 µM and the MIC [6] was over 200 µM.

`O=C(O)c1cccc(-c2ccc(/C=C3\S/C(=N\c4ccc(F)cc4)N(c4ccccn4)C3=O)o2)c1` showed an MIC [1] of 12.5 µM (≈ 6.07 µg/mL), a CC50 [2] of over 200 µM and an MIC [3] of 12.5 µM (≈ 6.07 µg/mL). The Activity [4] was “Non-toxic”, the MBC [5] was over 200 µM and the MIC [6] was over 200 µM.

With `O=C(O)c1cccc(-c2ccc(/C=C3\S/C(=N\c4ccccc4)N(c4ccc(F)cc4)C3=O)s2)c1` the MIC [1] was 6.25 µM (≈ 3.13 µg/mL), the CC50 [2] was over 200 µM and the MIC [3] was 12.5 µM (≈ 6.26 µg/mL). The Activity [4] was “Non-toxic”, the MBC [5] was 25 µM (≈ 12.5 µg/mL) and the MIC [6] was over 200 µM.

Compound `COc1cccc(OC)c1C(=O)N[C@@H]1C(=O)N2[C@@H]1SC(C)(C)[C@@H]2C(=O)O` [METHICILLIN] has an MIC [1] of 3.13 µM (≈ 1.19 µg/mL), a CC50 [2] of over 200 µM and an MIC [3] of 100 µM (≈ 38 µg/mL). The Activity [4] was “Non-toxic”, the MBC [5] was over 200 µM and the MIC [6] was over 200 µM.

`O=C(O)c1cccc(-c2ccc(/C=C3\S/C(=N\c4ccc(Cl)cc4)N(c4ncccc4F)C3=O)o2)c1` gave an MIC [1] of 12.5 µM (≈ 6.5 µg/mL), a CC50 [2] of over 200 µM and an MIC [3] of 12.5 µM (≈ 6.5 µg/mL). For the same compound, the Activity [4] was “Non-toxic”, the MBC [5] was over 200 µM and the MIC [6] was over 200 µM.

With `O=C(O)c1cccc(-c2ccc(/C=C3\S/C(=N\c4ccccc4)N(c4ccc(F)cn4)C3=O)s2)c1` the MIC [1] was 3.13 µM (≈ 1.57 µg/mL), the CC50 [2] was over 200 µM and the MIC [3] was 3.13 µM (≈ 1.57 µg/mL). For the same compound, the Activity [4] was “Non-toxic”, the MBC [5] was 50 µM (≈ 25.1 µg/mL) and the MIC [6] was over 200 µM.

Compound `CCc1ccccc1/N=C1\S/C(=C\c2ccc(OCC(=O)O)c(OC)c2)C(=O)N1c1ccccc1CC` has an MIC [1] of 25 µM (≈ 12.9 µg/mL), a CC50 [2] of 50 µM and an MIC [3] of 25 µM (≈ 12.9 µg/mL). The Activity [4] was “Non-toxic”, the MBC [5] was 100 µM (≈ 51.7 µg/mL) and the MIC [6] was over 200 µM.

Work on `O=C(O)c1cccc(-c2ccc(/C=C3\S/C(=N\c4ccccc4)N(c4ccc(F)cn4)C3=O)o2)c1` yielded an MIC [1] of 12.5 µM (≈ 6.07 µg/mL), a CC50 [2] of over 200 µM and an MIC [3] of 12.5 µM (≈ 6.07 µg/mL). For the same compound, the Activity [4] was “Non-toxic”, the MBC [5] was over 200 µM and the MIC [6] was over 200 µM.

Work on `O=C(O)c1cccc(-c2ccc(/C=C3\S/C(=N\c4ccc(Cl)cc4)N(c4ccc(Cl)cc4)C3=O)o2)c1` yielded an MIC [1] of 25 µM (≈ 13.4 µg/mL), a CC50 [2] of over 200 µM and an MIC [3] of 25 µM (≈ 13.4 µg/mL). For the same compound, the Activity [4] was “Non-toxic”, the MBC [5] was over 200 µM and the MIC [6] was over 200 µM.

In the case of `O=C(O)c1cccc(-c2ccc(/C=C3\S/C(=N\c4ccccc4)N(c4cccnc4Cl)C3=O)o2)c1`, the MIC [1] is reported as 3.13 µM (≈ 1.57 µg/mL), the CC50 [2] is reported as over 200 µM and the MIC [3] is reported as 6.25 µM (≈ 3.14 µg/mL). The Activity [4] was “Non-toxic”, the MBC [5] was 50 µM (≈ 25.1 µg/mL) and the MIC [6] was over 200 µM.

Work on `O=C(O)c1cccc(-c2ccc(/C=C3\S/C(=N\c4ccccc4)N(c4ccc(Cl)cc4)C3=O)o2)c1` yielded an MIC [1] of 6.25 µM (≈ 3.13 µg/mL), a CC50 [2] of over 200 µM and an MIC [3] of 6.25 µM (≈ 3.13 µg/mL). The Activity [4] was “Non-toxic”, the MBC [5] was 50 µM (≈ 25 µg/mL) and the MIC [6] was over 200 µM.

Compound `O=C(O)c1cccc(-c2ccc(/C=C3\S/C(=N\c4ccccc4)N(c4cccnc4Cl)C3=O)s2)c1` has an MIC [1] of 1.56 µM (≈ 0.808 µg/mL), a CC50 [2] of over 200 µM and an MIC [3] of 3.13 µM (≈ 1.62 µg/mL). The Activity [4] was “Non-toxic”, the MBC [5] was 6.3 µM (≈ 3.26 µg/mL) and the MIC [6] was over 200 µM.
